# Source: article PMC3025705 (European journal of nuclear medicine and molecular imaging, 2010)
# Test system: human sst2 receptor
# Assay: Immunofluorescence microscopy based sst2 internalization assay
# Assay type: cell-based
# Settings: HEK-sst2 cells, 30 min at 37°C, 10 nM
substance,measurement,value
Tyr^3-octreotide [TOC],sst2 internalization by positive control,sub-maximal internalization effect
